Measured values as given in EP0273990B1, “Novel organic peroxides and their use in the preparation of epoxide groups containing (co)polymers” (AKZO N.V., priority 1986, dated 1988).

Conditions: half-life period of decomposition 10 hours; 0,1 M solution in chlorobenzene

Temperature (°C) for t½ of 10 hours: 106 °C
Compound: C=CC(C)(C)OOC(C)(C)c1ccccc1 [peroxide 3, α-(2-methyl-3-buten-2-ylperoxy)isopropylbenzene]
